Entries after “also recorded” stand apart in the source; their conditions may differ.
How the values were obtained:
[1] = Stability of the salts (heat/humidity, heat, light; HPLC impurity peak area); format: physicochemical
Protocol: The stability of the salts was investigated under the following circumstances:
Heat, 60° C./80% RH: Samples were stored at 60° C. with 80% RH for one week. Then they were dissolved and analysed by HPLC.
Heat, 90° C.: Samples (˜10 mg) were stored at 90° C. in closed containers containing 1 droplet of water. Then they were dissolved and analysed by HPLC.
Light: Samples were placed in the light cabinet at 250 w/m^2 for 24 hours. Then they were dissolved and analysed by HPLC.
The area of peaks in the chromatograms besides the peaks corresponding to the substance or the acid was summarized.

[2] = Hygroscopicity by Dynamic Vapour sorption (DVS); format: physicochemical
Description: The hygroscopicity of the fumarate salt, the succinate salt (the alpha form) and the malonate salt was investigated by Dynamic Vapour sorption (DVS). […] The malonate absorbs gradually up to 1% of water when the relative humidity is raised to 95%, but with no hysteresis.

[3] = tested on: dopamine D1 receptor; settings: cited from earlier work
[4] = target: dopamine D2 receptor (Homo sapiens, UniProt P14416); settings: cited from earlier work
[5] = tested on: 5-HT2 receptor; settings: cited from earlier work
[6] = tested on: rats; settings: cited from earlier work
[7] = tested on: D1 and D2; settings: cited from earlier work
[8] = 90° C., closed containers containing 1 droplet of water

dopamine D2 receptor, sequence (P14416 whole entry, species assumed): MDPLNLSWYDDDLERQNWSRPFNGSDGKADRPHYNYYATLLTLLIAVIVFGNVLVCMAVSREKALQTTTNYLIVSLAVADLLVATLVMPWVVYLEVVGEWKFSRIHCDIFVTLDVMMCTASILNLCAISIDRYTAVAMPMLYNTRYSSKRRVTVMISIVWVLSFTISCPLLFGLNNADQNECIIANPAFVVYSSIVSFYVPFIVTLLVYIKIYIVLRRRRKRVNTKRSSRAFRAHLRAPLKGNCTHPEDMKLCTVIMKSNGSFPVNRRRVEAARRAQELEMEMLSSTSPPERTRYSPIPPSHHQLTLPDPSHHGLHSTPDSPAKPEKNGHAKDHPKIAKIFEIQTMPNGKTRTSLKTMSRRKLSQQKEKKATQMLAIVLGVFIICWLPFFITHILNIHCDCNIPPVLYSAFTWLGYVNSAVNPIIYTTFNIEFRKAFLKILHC

| Compound | Sum of impurity peak area % ([1]; 60° C./80% RH, one week) | Sum of impurity peak area % [1, 8] | Sum of impurity peak area % ([1]; Light, 250 w/m^2 for 24 hours) | Hygroscopicity ([2]; DVS) | D1 antagonist potency [3] | D2 antagonist potency [4] | 5-HT2 antagonist potency [5] | Induction of catalepsy [6] | D1 versus D2 antagonist potency in vivo [7] | Stability compared with the fumarate salt ([1]; 60° C./80% relative humidity (RH)) | Stability compared with the fumarate salt ([1]; 90° C.) | Stability compared with the fumarate salt ([1]; exposed to light) | Hysteresis of water sorption ([2]; DVS) | Water absorbed ([2]; relative humidity raised to 95%) | Stability compared with the fumarate salt and the hydrogen malonate salt [1] | Degradation ([1]; all stability conditions) |
| --- | --- | --- | --- | --- | --- | --- | --- | --- | --- | --- | --- | --- | --- | --- | --- | --- |
| CN1CCN([C@@H]2C[C@@H](c3ccccc3)c3ccc(Cl)cc32)CC1(C)C.O=C(O)/C=C/C(=O)O (relative stereo) [Fumarate, trans-4-((1R,3S)-6-chloro-3-phenylindan-1-yl)-1,2,2-trimethylpiperazinium (I) hydrogen fumarate] | 0.07% | 0.09% | 0.06% | non-hygroscopic | potent | potent | potent | does not induce catalepsy | equipotent | – | – | – | – | – | – | – |
| CN1CCN([C@@H]2C[C@@H](c3ccccc3)c3ccc(Cl)cc32)CC1(C)C.O=C(O)CC(=O)O (relative stereo) [Malonate 1:1, trans-4-((1R,3S)-6-chloro-3-phenylindan-1-yl)-1,2,2-trimethylpiperazinium (I) hydrogen malonate] | 0% | 6.19% | 0.06% | non-hygroscopic | – | – | – | – | – | more stable | less stable | similar | no hysteresis; also recorded: no hysterhesis | up to 1% | – | – |
| CN1CCN([C@@H]2C[C@@H](c3ccccc3)c3ccc(Cl)cc32)CC1(C)C.O=C(O)CCC(=O)O (relative stereo) [Succinate 1:1 alpha, trans-4-((1R,3S)-6-chloro-3-phenylindan-1-yl)-1,2,2-trimethyl-piperazinium (I) hydrogen succinate] | 0% | 0% | 0% | non-hygroscopic | – | – | – | – | – | – | – | – | – | – | more stable | does not show any degradation at all |

From patent publication US8076342B2, “Malonate salt of 4-((1R,3S)-6-chloro-3-phenylindan-1-yl)-1,2,2-trimethylpiperazine and uses of same” (priority 2003, dated 2011)
